The source of these data is PubChem BioAssay (NCI).

What all share (experiment): NCI-60 cell line screen, 48 h
The test system of test [1] is OVCAR-4 ovarian.
The test system of test [2] is M14 melanoma.
The test system of test [3] is OVCAR-3 ovarian.
Test [4] has as its system HCC-2998 colon.
Test [5] relates to HCT-15 colon.
Test [6] concerns NCI-H23 lung.
The test system of test [7] is KM12 colon.
In test [8] the test system is RPMI-8226 leukemia.
Test [9] concerns IGROV1 ovarian.
For test [10], the system named is K-562 leukemia.

Each structure is given as a SMILES string.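 96-well plates; 48 h exposure; 5 concentrations. Endpoints by linear interpolation between flanking doses. Not reached: highest tested concentration assigned. Here, GI50 denotes the concentration required for 50% inhibition of growth. At the TGI there is no net growth.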

On to `O=c1c2c(nc3n1CCS3)[nH]c1cc([N+](=O)[O-])ccc12`, for which the GI50 is greater than 100 µM in [1]; greater than 100 µM in test [2]; 25.5 µM in test [3]; greater than 100 µM in [4]; greater than 100 µM in [5]; greater than 100 µM in test [6]. In addition, the GI50 is greater than 100 µM in test [7], greater than 100 µM in [8], 36.2 µM in [9] and greater than 100 µM in [10]. The TGI in test [1] is greater than 100 µM; in [2], greater than 100 µM; in test [3], 81.2 µM; in test [4], greater than 100 µM; in test [5] it was greater than 100 µM; in test [6], greater than 100 µM. The TGI in test [7], in test [8], in test [9] and in [10] was greater than 100 µM in each case.

With `CC(C)(C)C1=CC(=C(P(=O)(O)O)P(=O)(O)O)C=C(C(C)(C)C)C1=O`, the TGI in test [1], in test [2], in [3], in test [4], in [5] and in test [6] was greater than 50 µM throughout. Besides, the TGI in [7], in test [8], in [9] and in test [10] was greater than 50 µM in each case.

For `COC(=O)c1cc2c(=O)n(C)c3ccccc3n2c1C(=O)OC`, the TGI in [1], in [2], in [3], in [4], in test [5] and in test [6] was greater than 100 µM each time. Also, the TGI in test [7], in test [8], in [9] and in test [10] was greater than 100 µM in each case.
